Measured values reported in patent US20240166660A1, “KRAS G12C INHIBITORS” (BeiGene Switzerland GmbH, priority 2021, published 2024).

Molecular target: KRAS (aa 1-169) G12C, C51S, C80L, C118S (Homo sapiens (Human), UniProt P01116, C118S/C51S/C80L/G12C)
Experiment: Biochemical functional assay: SOS1-mediated nucleotide exchange of GDP-loaded KRAS G12C, binding to GST-cRaf RBD, FRET readout
Conditions: 3 hrs pre-incubation with compound at 24° C., SOS1, GTPyS, inhibition of nucleotide exchange
Outline: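 GDP-loaded His-tagged KRAS construct preincubated with compound 3 h at 24° C in 25 mM HEPES pH7.5, 10 mM MgCl2, 0.01% Triton X-100; SOS1 (aa 564-1049), GTPγS and GST-cRaf RBD added for 3 h, then anti-His Tb cryptate/anti-GST XL665 for 3 h. HTRF 665/620 ratio; IC50 by four-parameter logistic fit.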

Chain of KRAS (aa 1-169) G12C, C51S, C80L, C118S (P01116 other isoform, or with tags, fused parts or gaps G12C/C51S/C80L/C118S): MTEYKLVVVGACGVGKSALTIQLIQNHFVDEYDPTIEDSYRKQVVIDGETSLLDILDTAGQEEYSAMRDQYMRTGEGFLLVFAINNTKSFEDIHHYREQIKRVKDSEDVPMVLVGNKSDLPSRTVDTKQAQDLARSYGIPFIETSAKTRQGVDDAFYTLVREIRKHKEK

SMILES | IC50 [nM]
C=C(F)C(=O)N1CCN(c2nc(O[C@@H]3CCN(C)C3)nc3cc(-c4cccc5cccc(Cl)c45)c4c(c23)OCCC4)C[C@@H]1CC#N [Compound B71, 2-((S)-4-(5-(8-chloronaphthalen-1-yl)-8-(((R)-1-methylpyrrolidin-3-yl)oxy)-3,4-dihydro-2H-pyrano[2,3-f]quinazolin-10-yl)-1-(2-fluoroacryloyl)piperazin-2-yl)acetonitrile] | 304
C=C(F)C(=O)N1CCN(c2nc(N3CC(CF)(N(C)C)C3)nc3cc(-c4cccc5cccc(Cl)c45)c4c(c23)OCCC4)C[C@@H]1CC#N [Compound B88, (S)-2-(4-(5-(8-chloronaphthalen-1-yl)-8-(3-(dimethylamino)-3-(fluoromethyl)azetidin-1-yl)-3,4-dihydro-2H-pyrano[2,3-f]quinazolin-10-yl)-1-(2-fluoroacryloyl)piperazin-2-yl)acetonitrile] | 92
